{
  "source": "patent US7078395B1",
  "about": "“Methods for treating or preventing cancer by preventing, inhibiting or arresting cell cycling” (priority 1999, dated 2006)",
  "key": {"MCF7 cells": {"system": "MCF7 cells", "experiment": "Proportion of cells in mitosis (PI stained cytospins, confocal microscopy)", "assay_type": "cell-based", "conditions": "24 hours (control 4%)", "method": "To determine the proportion of cells in mitosis, drug treated cells were collected by trypsinisation and cytospins prepared. Cells were fixed in ice cold methanol for 5 minutes, air dried and DNA was stained using propidium iodide (PI) (0.1 mg/ml in phosphate buffered saline (PBS) containing 10% (v/v) newborn calf serum and 0.05% (w/v) sodium azide). Cells were analysed by confocal microscopy using a Zeiss Axiovert 100 M microscope equipped with the LSM 510 confocal system (Zeiss, Jena, Germany).\nEffect of estrone derivatives on mitosis in MCF7 cells. MCF7 cells were treated with the indicated compounds for 24 hours. Cells were recovered by trypsinisation and cytospins prepared. DNA was stained with PI and cells in mitosis (i.e., with condensed chromosomes) determined as a percentage of total cells."}, "[1]": {"system": "nitrosomethylurea-induced mammary tumours", "experiment": "Growth of NMU-induced mammary tumours in intact rats", "assay_type": "in vivo, rat", "method": "The effect of 2-MeOEMATE on mammary tumour growth was examined in a preliminary study using Ludwig rats (Harlan Olac, Bicester, UK) in which tumours were induced by inoculation of NMU. Tumour development was monitored regularly and when 0.5-1.0 cm^3 in volume, animals received vehicle (propylene glycol, 200 μl/day, p.o.), 2-MeOEMATE (20 mg/kg/day, p.o.) or 2-MeOE1 (20 mg/kg/day, p.o.) daily for an 11 day period. Tumour length and width was measured with callipers and tumour volumes calculated as described (21)."}, "[2]": {"conditions": "(18, 19); cited from earlier work"}, "MCF-7 cells [3]": {"system": "MCF-7 cells", "experiment": "Flow cytometry analysis of cell cycle distribution (propidium iodide)", "assay_type": "cell-based", "conditions": "10 μM; for proportion of cells in the G1 phase: time-course study (untreated 66%)", "method": "Cells were cultured in the presence of 2-MeOE1, 2-MeOEMATE or vehicle for up to 48 h. To examine the reversibility of the effects of 2-MeOEMATE on the cell cycle, cells were treated for 24 h with the drug after which cells were washed and cultured in fresh medium without drug for a further 24 h period.\nTo prepare cells for analysis of DNA content, cells were trypsinised (0.25% trypsin, 0.02% EDTA), washed with PBS and fixed with 70% ethanol. Cells were collected by centrifugation, re-suspended in PBS (1-2×10^6 cells/ml) and treated with RNase A (0.1 mg/ml) and stained with propidium iodide (0.05 mg/ml) for 30 min at room temperature. Cells were analysed with a flow cytometer (FACscan, Becton Dickinson Immunocytormetry System, Bedford Mass.)."}, "[4]": {"system": "MCF-7 breast cancer cells", "experiment": "Irreversible inhibition of cell growth, Stage 1 and Stage 2 (Coulter cell counter)", "assay_type": "cell-based", "conditions": "for cell numbers, % of the control cell number, Stage 1: 6 days", "method": "MCF-7 breast cancer cells were seeded into multi-well culture plates at a density of 10^5 cells/well. Cells were allowed to attach and grown until about 30% confluent when they were treated as follows:\nCells were grown for 6 days in growth medium containing the above drugs with changes of medium/drug every 3 days. At the end of this period cell numbers were counted using a Coulter cell counter.\nAfter treatment of cells for a 6-day period with the above drugs cells were re-seeded at a density of 10^4 Cells/well. No further treatments were added. Cells were allowed to continue to grow for a further 6 days in the presence of growth medium. At the end of this period cell numbers were again counted.\nStages 1 and 2 described above were repeated using Control—no treatment, EMATE 20 μM and EMATE 5 μM.\nMCF-7 breast cancer cells were seeded into multi-well culture plates at a density of 10^5 cells/well. Cells were allowed to attach and grown until about 30% confluent when they were treated as follows: • Control—no treatment • Compound of Interest (COI) 20 μM\nCells were grown for 6 days in growth medium containing the COI with changes of medium/COI every 3 days. At the end of this period cell numbers were counted using a Coulter cell counter.\nAfter treatment of cells for a 6-day period with the COI cells were re-seeded at a density of 10^4 cells/well. No further treatments were added. Cells were allowed to continue to grow for a further 6 days in the presence of growth medium. At the end of this period cell numbers were again counted."}, "[5]": {"system": "MCF-7 breast cancer cells", "experiment": "Cell morphology by photomicrographs", "assay_type": "cell-based", "conditions": "1 μM, 24 h", "method": "MCF-7 (ER+) and MDA-MB-231 (ER−) breast cancer cells were obtained from the American Type Culture Collection (Rockville, Md.). Cells were routinely cultured in 25 cm^2 culture flasks in Eagle's minimum essential medium (EMEM) with Hepes buffer (20 mM). This medium was supplemented with L-glutamine (2 mM), sodium hydrogen carbonate (10 mM), 1% non-essential amino acids and 5% (v/v) foetal calf serum (FCS). Before adding test compounds, cells were washed with phosphate-buffered saline (PBS) and treatments added in phenol-red free medium containing 2% stripped FCS and supplements. The effects of 2-MeOE1 or 2-MeOEMATE on the growth of MCF-7 cells was assessed using a Cell Titer 96 cell proliferation assay (Promega, Southampton, Hants, UK) according to the manufacturers' instructions. For this, cells (5000 per well) were cultured in medium containing phenol-red and 10% FCS and were exposed to a drug for 4 days before the assay was performed. For MDA-MB-231 cells, cell numbers were determined using a Coulter counter.\nPhotomicrographs of control and treated cells were taken under normal conditions of light and exposure using an Olympus SL35 Type 12 camera under an Olympus CK2 microscope (×100 magnification)."}, "MCF-7 cells [6]": {"system": "MCF-7 cells", "experiment": "TUNEL analysis of apoptosis", "assay_type": "cell-based", "conditions": "10 μM, 48 h", "text": "The ability of 2-MeOEMATE to induce apoptosis in MCF-7 cells was examined by TUNEL analysis using an in situ cell death detection kit (Boehringer Manheim UK Ltd., Lewes, East Sussex, UK). Cells were fixed and permeabilised according to the manufacturers' instructions. Stained apoptotic cells were quantitated by flow cytometry."}},
  "note": "Values joined by “and” are separate entries in the source; they are usually repeats but may differ in a detail not shown here. Equal values may be shown once.",
  "data": [
    {"compound": "COc1cc2c(cc1OS(N)(=O)=O)CCC1C2CC[C@]2(C)C(=O)CCC12", "note": "(stereo partly shown) [2-MeOEMATE, 2-methoxyoestrone-3-O-sulphamate]", "values": [
      {"measurement": "mitotic cells, percentage of total cells", "setting": "MCF7 cells; 500 nM", "value": 26, "unit": "%"},
      {"measurement": "mitotic cells, percentage of total cells", "setting": "MCF7 cells; 5 μM", "value": 38, "unit": "%"},
      {"measurement": "reduction in tumour volume", "setting": "[1]; 20 mg/kg/day, p.o., 11 days, individual animals", "value": "almost complete regression of ⅔ tumours and 8% and tumours regressed rapidly and were barely palpable and regressed almost completely"},
      {"measurement": "regrowth of regressed tumours", "setting": "[1]; monitored for a further 33 days after 11-day dosing", "value": "no regrowth of tumours was detected"},
      {"measurement": "oestrogenicity", "setting": "[2]", "value": "devoid of oestrogenicity"},
      {"measurement": "time by which accumulation of cells in the G2/M phase was apparent", "setting": "MCF-7 cells [3]", "value": "≤ 12", "unit": "h"},
      {"measurement": "proportion of cells in the G1 phase", "setting": "MCF-7 cells [3]; 12 h exposure", "value": 50, "unit": "%"},
      {"measurement": "cell cycle distribution, G1", "setting": "MCF-7 cells [3]; 24 h", "value": 10},
      {"measurement": "cell cycle distribution, G2/M", "setting": "MCF-7 cells [3]; 24 h", "value": 60},
      {"measurement": "cell cycle distribution, S", "setting": "MCF-7 cells [3]; 24 h", "value": 8},
      {"measurement": "cell cycle distribution, Sub-G1", "setting": "MCF-7 cells [3]; 24 h", "value": 22},
      {"measurement": "cell cycle distribution, G1", "setting": "MCF-7 cells [3]; 24 h + 24 h drug-free culture", "value": 8},
      {"measurement": "cell cycle distribution, G2/M", "setting": "MCF-7 cells [3]; 24 h + 24 h drug-free culture", "value": 57},
      {"measurement": "cell cycle distribution, S", "setting": "MCF-7 cells [3]; 24 h + 24 h drug-free culture", "value": 7},
      {"measurement": "cell cycle distribution, Sub-G1", "setting": "MCF-7 cells [3]; 24 h + 24 h drug-free culture", "value": 27},
      {"measurement": "proportion of cells in the G1 phase", "setting": "MCF-7 cells [3]; 24 h exposure", "value": 23, "unit": "%"},
      {"measurement": "cell cycle distribution, G1", "setting": "MCF-7 cells [3]; 48 h", "value": 14},
      {"measurement": "cell cycle distribution, G2/M", "setting": "MCF-7 cells [3]; 48 h", "value": 58},
      {"measurement": "cell cycle distribution, S", "setting": "MCF-7 cells [3]; 48 h", "value": 9},
      {"measurement": "cell cycle distribution, Sub-G1", "setting": "MCF-7 cells [3]; 48 h", "value": 18},
      {"measurement": "cell numbers, % of the control cell number, Stage 1", "setting": "[4]; 1 m (so in the source)", "value": 52, "unit": "%"},
      {"measurement": "cell numbers, % of the control cell number, Stage 1", "setting": "[4]; 5 μm", "value": 43, "unit": "%"},
      {"measurement": "effect on cell numbers, Stage 2 (irreversible growth inhibition)", "setting": "[4]; re-seeded after 6-day treatment, further 6 days without drug", "value": "severely growth restricted"},
      {"measurement": "effect on cell morphology", "setting": "[5]", "value": "significant increase in the number of rounded and detached cells"},
      {"measurement": "fluorescently labelled (TUNEL positive) cells as proportion of the cell population", "setting": "MCF-7 cells [6]", "value": "approximately 10%"}
    ]}
  ]
}
